Where “and” joins values, the source holds several entries; their conditions need not be identical. Equal entries are not always repeated. Peptide text beside a SMILES is read from it.
How the values were obtained:
[1] = target: T1, Survivin120/CRM1_1-1062VLV430AAA complex (Homo sapiens, UniProt O15392); assay: Fluorescence anisotropy titration of Atto488-Survivin120/CRM1 complex with tweezers; type: binding; settings: for Anisotropy: Data 1; for IC50: fluorescence anisotropy, Atto488-Survivin120:CRM1 mutant 1:5, n = 1, read-out: IC50, disruption of Survivin–CRM1 complex
T1 construct: the only published NMR structure originated from a truncated Survivin (aa 1-120) with improved solubility; GST with PreScission site (N); made in house; host or cells: E. coli BL21-CodonPlus-RIL (CRM1 mutant); E. coli soluBL21 (Survivin120)
T1 sequence (O15392 1-120, one chain of several): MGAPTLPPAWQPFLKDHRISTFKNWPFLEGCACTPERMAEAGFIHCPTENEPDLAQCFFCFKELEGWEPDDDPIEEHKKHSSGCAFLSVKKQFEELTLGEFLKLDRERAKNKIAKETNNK
Protocol: We also used fluorescence anisotropy experiments to investigate the ability of the tweezer molecules to disrupt the Survivin–CRM1 complex. Atto488-labeled Survivin120 was preincubated with the CRM1_1-1062VLV430AAA mutant[40] that binds Survivin irrespective of RanGTP and titrated with tweezers.
Fluorescence anisotropy was measured with a Jasco Spectrofluorometer FP-8300 in PBS buffer, pH 7.4, at 25 °C and data were collected with the software Spectra Manager™.
For the quantitative analysis of the Survivin120/CRM1 complex, Survivin120 was labeled with ATTO488-maleimide from Jenabioscience according to the manufacturer’s instructions and mixed with CRM1_1-1062VLV430AAA in a ratio of 1:5. The protein complex was then titrated with tweezers in several steps until a final concentration of approximately 180 μM tweezers was reached. Data were transformed to logarithmic scale and IC50 was fitted using the equation in GraphPad Prism 8:2 y=Amin+Amax−Amin/1+10^x−logIC50 where Amax is the anisotropy in the absence of tweezer, Amin is the anisotropy at the end titration, and x is the concentration of tweezer. Amax was constrained for each data set, whereas Amin and IC50 were fitted.

[2] = target: T2, GST-Survivin120-K90/103T–CRM1 interaction (Homo sapiens, UniProt O15392, K103T/K90T); assay: Pull-down with GST-Survivin120-K90/103T bait, CRM1 and RanQ69L; type: binding; settings: for CRM1: Peak area determined with ImageJ / CRM1 intensity_normalised on GST-Surv intensity (samples 1-14) / CRM1: Control w/o GST-Survivin subtracted (sample 16 or 23): CRM1 band; for CRM1: Peak area determined with ImageJ / CRM1 intensity_normalised on GST-Surv intensity (samples 1-14) / CRM1: Control w/o GST-Survivin subtracted (sample 16 or 23) / CRM1 intensity_normalised on GST-Surv intensity (samples 1-14) and CRM1 intensity w/o incubation (sample 15 or 22): samples 22-28 (K90/103T); for CRM1: Control w/o GST-Survivin subtracted (sample 16 or 23): sample 23 subtracted; for GST-Surv: Peak area determined with ImageJ / GST-Surv: Control w/o GST-Survivin subtracted (sample 2 or 9): GST-Surv bait band; for GST-Surv: Peak area determined with ImageJ: samples 8-14 (K90/103T according to the summary in r39-r41); for GST-Surv: Control w/o GST-Survivin subtracted (sample 2 or 9): samples 8-14 (K90/103T), sample 9 subtracted; for Normalised CRM1 intensity, summary of replicates I and II: K90/103T, w/o tweezer = 100, replicates I and II
T2 construct: the only published NMR structure originated from a truncated Survivin (aa 1-120) with improved solubility; made in house; host or cells: Escherichia coli soluBL21
T2 sequence (O15392 1-120 K90T/K103T): as the sequence (O15392 1-120, one chain of several) above, with K90T, K103T counted along it
Protocol: Next, we investigated whether tweezer inhibition of the export complex assembly is compromised upon lysine mutations near the NES. Therefore, pull-down experiments were performed with recombinant GST-tagged Survivin120 wildtype and K90/103T as bait proteins, tweezers, recombinant CRM1 and RanQ69L (Fig. 7g). Controls lacking the Survivin baits were included, as well as isolated peptides without tweezer (Fig. 7h). […] However, for the double lysine mutant GST-Survivin120-K90/103T even the tweezer conjugates lost most of their inhibitory power toward the essential Survivin–CRM1 interaction.
All pull-down assays were performed at room temperature in pull-down buffer (PBS, pH 7.4, 1 mM DTT, 0.02 Triton X-100). GST fusion proteins were immobilized on 50 μL GSH-coated Sepharose 4B beads from GE Healthcare. The beads were prior equilibrated and blocked with 500 μL pull-down blocking buffer (PBS, pH 7.4, 1 (w/v) BSA, 1 mM DTT, 0.02 (v/v) Triton X-100) for 1 h to prevent unspecific binding.
For analysis of the effective inhibitory tweezer concentration, 200 μg 293T lysate with overexpressed Survivin142-HA was preincubated without ligand or with different concentrations (10 nM to 200 μM) of unmodified tweezer TW, TW-ELTL, TW-ELTLGEFL, or TW-LFEEGLLT for 1 h and then mixed with 35 μg GST-CRM1, 55 μg RanQ69L, and 2 mM dGTP. GSH-beads were incubated with this protein mixture for 2 h under rotation. For analysis of tweezer specificity, 40 μg GST-Survivin120 or GST-Survivin120-K90/103T point mutant was pre-bound to equilibrated GSH-beads in 500 μL pull-down buffer, containing additionally either no ligand or 50 μM unmodified tweezer TW, TW-ELTL, TW-ELTLGEFL, or peptides ELTL and ELTLGEFL, for 1 h under rotation. After washing and blocking, GSH-beads were incubated with a protein mixture consisting of 2 mM dGTP, 50 μg CRM1, and 50 μg RanQ69L for 2 h under rotation.
Samples of input and beads taken during pull-down experiments were ran on 12.5 SDS gels and transferred onto 0.2 µM PVDF membranes (Amersham Hybond P 0.2) using a PerfectBlue™ tank electro blotter (Peqlab) at 350 mA for 150 min. Membranes were blocked for 1 h using 5% milk powder in TBS buffer containing 0.1% Tween-20. Next, membranes were incubated in primary antibodies against HA (anti-HA, mouse monoclonal, BioLegend, Covance MMS-101R, 1:1,000), GST (anti-GST, mouse monoclonal, Santa Cruz Biotechnology Inc., sc-57753, 1:1000) or CRM1 (anti-CRM1, rabbit polyclonal, Novus Biologicals Ltd., NB100-79802, 1:10,000) overnight at 4 °C. Secondary horseradish peroxidase (HRP)-conjugated antibody (anti-mouse IgG-HRP, sheep, GE Healthcare, NXA931 or anti-rabbit IgG-HRP, donkey, GE Healthcare, NA934) was then added (1:10,000) for 1 h at room temperature. Chemiluminescence was detected and imaged using the Pierce ECL Plus Western Blotting Substrate kit (Thermo Fisher Scientific) and Chemidoc system (Bio-Rad) or film processor Cawomat 2000 IR (CAWO). Western blots were analyzed by densitometric analysis with ImageJ version 1.52p (U.S. National Institutes of Health), measuring the mean gray intensity of protein bands. Uncropped and unprocessed scans of western blots are deposited in the Source Data file.

[3] = Concentration of Tweezer 8.26446
[4] = Concentration of Tweezer 16.39344
[5] = Concentration of Tweezer 24.39024
[6] = Concentration of Tweezer 32.25806
[7] = Concentration of Tweezer 40.00000
[8] = Concentration of Tweezer 55.11811
[9] = Concentration of Tweezer 83.96947
[10] = Concentration of Tweezer 136.69060
[11] = Concentration of Tweezer 183.67350
[12] = fraction of sample 22 (w/o tweezer)

Q: What does the source list for `O=P(O)(O)Oc1c2c(c(OP(=O)(O)O)c3c1C1CC3c3cc4c(cc31)C1CC4c3ccccc31)C1CC2c2cc3c(cc21)C1CC3c2ccccc21` [TW, reference compound]?
A: Anisotropy [1, 3]: 0.0578; Anisotropy [1, 4]: 0.0573; Anisotropy [1, 5]: 0.0568; Anisotropy [1, 6]: 0.0561; Anisotropy [1, 7]: 0.0556; Anisotropy [1, 8]: 0.0551; Anisotropy [1, 9]: 0.0525; Anisotropy [1, 10]: 0.0507; Anisotropy [1, 11]: 0.0512; Anisotropy ([1]; Concentration of Tweezer 225.80650): 0.0517; IC50 [1]: 53 µM and 53.4 µM; CRM1: Peak area determined with ImageJ [2]: 39038.4; CRM1 intensity_normalised on GST-Surv intensity (samples 1-14) [2]: 0.5728; CRM1: Control w/o GST-Survivin subtracted (sample 16 or 23) [2]: 34329.1; GST-Surv: Peak area determined with ImageJ [2]: 62533.1; GST-Surv: Control w/o GST-Survivin subtracted (sample 2 or 9) [2]: 59934; Normalised CRM1 intensity, summary of replicates I and II [2]: 90.4067%; CRM1 intensity_normalised on GST-Surv intensity (samples 1-14) and CRM1 intensity w/o incubation (sample 15 or 22) [2, 12]: 0.9041; CRM1 intensity_normalised on GST-Surv intensity (samples 1-14) and CRM1 intensity w/o incubation (sample 15 or 22) ([2]; w/o tweezer = 100): 90.4067%

Q: Which IC50 [1] does the source give for `CC(C)C[C@H](NC(=O)[C@H](Cc1ccccc1)NC(=O)[C@H](CCC(=O)O)NC(=O)CNC(=O)[C@H](CC(C)C)NC(=O)[C@@H](NC(=O)[C@H](CC(C)C)NC(=O)[C@H](CCC(=O)O)NC(=O)Cn1cc(CCOP(=O)(O)Oc2c3c(c(OP(=O)(O)O)c4c2C2CC4c4cc5c(cc42)C2CC5c4ccccc42)C2CC3c3cc4c(cc32)C2CC4c3ccccc32)nn1)[C@@H](C)O)C(=O)O` [TW-ELTLGEFL] (HELM PEPTIDE1{[O=C(Cn1cc(CCOP(=O)(O)Oc2c3c(c(OP(=O)(O)O)c4c2C2CC4c4cc5c(cc42)C2CC5c4ccccc42)C2CC3c3cc4c(cc32)C2CC4c3ccccc32)nn1)[*:2]].E.L.T.L.G.E.F.L}$$$$V2.0) here?
A: The IC50 was 12 µM and 11.6 µM.

Q: And the “Normalised CRM1 intensity, summary of replicates I and II” value [2]?
A: The value was 109.825% and 111.087%.

Q: And the “CRM1 intensity_normalised on GST-Surv intensity (samples 1-14) and CRM1 intensity w/o incubation (sample 15 or 22)” value (“CRM1 intensity_normalised … (sample 15 or 22)” for short) ([2]; w/o tweezer = 100)?
A: Its value is 109.825%.

Q: `CC(C)C[C@H](NC(=O)[C@@H](NC(=O)[C@H](CC(C)C)NC(=O)[C@H](CCC(=O)O)NC(=O)Cn1cc(CCOP(=O)(O)Oc2c3c(c(OP(=O)(O)O)c4c2[C@H]2C[C@@H]4c4cc5c(cc42)[C@H]2C[C@@H]5c4ccccc42)[C@H]2C[C@@H]3c3cc4c(cc32)[C@H]2C[C@@H]4c3ccccc32)nn1)[C@@H](C)O)C(=O)O` [TW-ELTL] was tested. Which Anisotropy [1, 3] did it give?
A: Its Anisotropy is 0.0572.

Q: What about the Anisotropy [1, 4] of the same compound?
A: The Anisotropy was 0.0560.

Q: What about the Anisotropy [1, 5] of the same compound?
A: The Anisotropy was 0.0559.

Q: What about the Anisotropy [1, 6] of the same compound?
A: Its Anisotropy is 0.0551.

Q: What about the Anisotropy [1, 7] of the same compound?
A: Its Anisotropy is 0.0548.

Q: What about the Anisotropy [1, 8] of the same compound?
A: Its Anisotropy is 0.0528.

Q: And the Anisotropy [1, 9]?
A: The Anisotropy was 0.0510.

Q: And the Anisotropy [1, 10]?
A: Its Anisotropy is 0.0501.

Q: And the Anisotropy [1, 11]?
A: The Anisotropy was 0.0506.

Q: What about the IC50 [1] of the same compound?
A: The IC50 was 39 µM.

Q: What about the “CRM1: Peak area determined with ImageJ” value [2] of the same compound?
A: Its value is 11197.5.

Q: What about the “CRM1 intensity_normalised on GST-Surv intensity (samples 1-14)” value [2] of the same compound?
A: Its value is 0.3807.

Q: And the “CRM1: Control w/o GST-Survivin subtracted (sample 16 or 23)” value [2]?
A: The value was 6488.31.

Q: And the “GST-Surv: Peak area determined with ImageJ” value [2]?
A: Its value is 19643.8.

Q: What about the “GST-Surv: Control w/o GST-Survivin subtracted (sample 2 or 9)” value [2] of the same compound?
A: The value was 17044.7.

Q: And the “Normalised CRM1 intensity, summary of replicates I and II” value [2]?
A: The value was 60.0833%.

Q: And the “CRM1 intensity_normalised … (sample 15 or 22)” value [2, 12]?
A: The value was 0.6008.

Q: What about the “CRM1 intensity_normalised … (sample 15 or 22)” value ([2]; w/o tweezer = 100) of the same compound?
A: The value was 60.0833%.
